Experimental data published in PubChem BioAssay AID330 (DTP/NCI, 2004).
Several values for one entry are separate records, joined by “and”; a condition that tells them apart may be missing. Identical values can stand only once. Toxic doses and inconclusive results are not listed.

System: P388 leukemia ip, CD2F1 mice, survival T/C
Experiment: NCI In Vivo Anticancer Drug Screen. Data for tumor model P388 Leukemia (intraperitoneal) in CD2F1 (CDF1) mice
Conditions: endpoint: median survival time, higher = longer survival
In short: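 Mice carrying the transplanted tumor received test compound or vehicle. Survival was recorded in each group, and the value is the treated-group measurement divided by that of the vehicle-treated control group.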

[1] = dose: 100.0 mg/kg/injection, schedule: Q01DX001 (ip), vehicle: saline
[2] = dose: 50.0 mg/kg/injection, schedule: Q01DX005 (ip), vehicle: saline with Tween-80
[3] = dose: 100.0 mg/kg/injection, schedule: Q01DX005 (ip), vehicle: saline with Tween-80
[4] = dose: 200.0 mg/kg/injection, schedule: Q01DX005 (ip), vehicle: saline with Tween-80
[5] = dose: 60.0 mg/kg/injection, schedule: Q01DX005 (ip), vehicle: saline with Tween-80
[6] = dose: 120.0 mg/kg/injection, schedule: Q01DX005 (ip), vehicle: saline with Tween-80
[7] = dose: 240.0 mg/kg/injection, schedule: Q01DX005 (ip), vehicle: saline with Tween-80
[8] = dose: 100.0 mg/kg/injection, schedule: Q04DX003 (ip), vehicle: saline with Tween-80
[9] = dose: 200.0 mg/kg/injection, schedule: Q04DX003 (ip), vehicle: saline with Tween-80
[10] = dose: 400.0 mg/kg/injection, schedule: Q04DX003 (ip), vehicle: saline with Tween-80

What does the source list for `CC/C(=C(\c1ccccc1)c1ccc(OCCN(C)C)cc1)c1ccccc1`?
T/C (dose: 0.78 mg/kg/injection, schedule: Q01DX009 (ip), vehicle: suspension in saline): 94 % of control; T/C (dose: 1.56 mg/kg/injection, schedule: Q01DX009 (ip), vehicle: suspension in saline): 94 % of control; T/C (dose: 3.12 mg/kg/injection, schedule: Q01DX009 (ip), vehicle: suspension in saline): 94 % of control; T/C (dose: 6.25 mg/kg/injection, schedule: Q01DX009 (ip), vehicle: suspension in saline): 98 % of control; T/C (dose: 12.5 mg/kg/injection, schedule: Q01DX009 (ip), vehicle: Klucel (hydroxypropylcellulose) (HPC)): 105 % of control; T/C (dose: 12.5 mg/kg/injection, schedule: Q01DX009 (ip), vehicle: suspension in saline): 100 % of control; T/C (dose: 25.0 mg/kg/injection, schedule: Q01DX009 (ip), vehicle: Klucel (hydroxypropylcellulose) (HPC)): 102 % of control; T/C (dose: 25.0 mg/kg/injection, schedule: Q01DX009 (ip), vehicle: suspension in saline): 104 % of control; T/C (dose: 50.0 mg/kg/injection, schedule: Q01DX004 (ip), vehicle: saline with Tween-80): 92 % of control; T/C (dose: 50.0 mg/kg/injection, schedule: Q01DX009 (ip), vehicle: Klucel (hydroxypropylcellulose) (HPC)): 110 % of control; T/C (dose: 50.0 mg/kg/injection, schedule: Q01DX009 (ip), vehicle: suspension in saline): 101 % of control; T/C (dose: 100.0 mg/kg/injection, schedule: Q01DX004 (ip), vehicle: saline with Tween-80): 82 % of control; T/C (dose: 100.0 mg/kg/injection, schedule: Q01DX009 (ip), vehicle: Klucel (hydroxypropylcellulose) (HPC)): 117 % of control; T/C (dose: 100.0 mg/kg/injection, schedule: Q01DX009 (ip), vehicle: suspension in saline): 92 % of control

What does the source list for `CCOC(=O)C(N)CSC(c1ccccc1)(c1ccccc1)c1ccccc1` (stereo not given)?
T/C (dose: 12.5 mg/kg/injection, schedule: Q01DX009 (ip), vehicle: water): 117 % of control and 98 % of control; T/C (dose: 25.0 mg/kg/injection, schedule: Q01DX009 (oral), vehicle: water): 114 % of control; T/C (dose: 50.0 mg/kg/injection, schedule: Q01DX009 (ip), vehicle: water): 155 % of control; T/C (dose: 200.0 mg/kg/injection, schedule: Q04DX003 (ip), vehicle: saline): 180 % of control

Which results are given for `CCCNC(=O)CCC(NS(=O)(=O)c1ccccc1)C(=O)O` (stereo not given)?
T/C (dose: 100.0 mg/kg/injection, schedule: Q04DX002 (ip), vehicle: Klucel (hydroxypropylcellulose) (HPC)): 91 % of control; T/C (dose: 200.0 mg/kg/injection, schedule: Q04DX002 (ip), vehicle: Klucel (hydroxypropylcellulose) (HPC)): 102 % of control; T/C (dose: 400.0 mg/kg/injection, schedule: Q04DX002 (ip), vehicle: Klucel (hydroxypropylcellulose) (HPC)): 96 % of control

`Cc1ccc(S(=O)(=O)c2cncnc2N)cc1` was tested. Which T/C [1] did it give?
Its T/C is 101 % of control.

What about the T/C (dose: 200.0 mg/kg/injection, schedule: Q01DX001 (ip), vehicle: saline) of the same compound?
The T/C was 110 % of control.

What about the T/C (dose: 400.0 mg/kg/injection, schedule: Q01DX001 (ip), vehicle: saline) of the same compound?
The T/C was 110 % of control.

Which T/C (dose: 25.0 mg/kg/injection, schedule: Q01DX009 (ip), vehicle: saline) does the source give for `c1ccc2c(c1)CN1CCN=C1N2` here?
Its T/C is 100 % of control.

What about the T/C (dose: 50.0 mg/kg/injection, schedule: Q01DX009 (ip), vehicle: saline) of the same compound?
The T/C was 94 % of control.

Which results are given for `CC1=CC(=Nc2cc(Br)c(O)c(Br)c2)C=CC1=O`?
T/C (dose: 6.25 mg/kg/injection, schedule: Q01DX005 (ip), vehicle: saline): 100 % of control; T/C (dose: 12.5 mg/kg/injection, schedule: Q01DX005 (ip), vehicle: saline): 100 % of control; T/C (dose: 25.0 mg/kg/injection, schedule: Q01DX005 (ip), vehicle: saline): 105 % of control

How did the T/C (dose: 12.5 mg/kg/injection, schedule: Q04DX003 (ip), vehicle: saline with Tween-80) turn out when `NC(=S)N/N=C/c1ccc(-c2ccccc2)cc1` was run?
The T/C was 110 % of control.

And the T/C (dose: 25.0 mg/kg/injection, schedule: Q04DX003 (ip), vehicle: saline with Tween-80)?
Its T/C is 120 % of control.

And the T/C (dose: 50.0 mg/kg/injection, schedule: Q04DX003 (ip), vehicle: saline with Tween-80)?
Its T/C is 100 % of control.

With `CCOc1cccc(/C=N\Nc2nc(=O)cc(C(=O)OC)s2)c1O` as the compound, how does the T/C [2] read?
Its T/C is 97 % of control.

What about the T/C [3] of the same compound?
The T/C was 104 % of control.

And the T/C [4]?
Its T/C is 107 % of control.

With `COc1ccc(N(CN2C(=O)CCC2=O)CS(=O)(=O)c2ccc(Cl)cc2)cc1` as the compound, how does the T/C (dose: 60.0 mg/kg/injection, schedule: Q01DX005 (ip), vehicle: Klucel (hydroxypropylcellulose) (HPC)) read?
The T/C was 97 % of control.

And the T/C (dose: 120.0 mg/kg/injection, schedule: Q01DX005 (ip), vehicle: Klucel (hydroxypropylcellulose) (HPC))?
The T/C was 90 % of control.

And the T/C (dose: 240.0 mg/kg/injection, schedule: Q01DX005 (ip), vehicle: Klucel (hydroxypropylcellulose) (HPC))?
The T/C was 100 % of control.

With `O=C1CSC(c2ccc(F)cc2)N1CCN1C(=O)CSC1c1ccc(F)cc1` (stereo not given) as the compound, how does the T/C [5] read?
The T/C was 106 % of control.

And the T/C [6]?
The T/C was 100 % of control.

And the T/C [7]?
The T/C was 95 % of control.

What does the source list for `Cc1ccc(C)c(NC(=O)CCC(=O)C(C)C(=O)c2ccccc2)c1` (stereo not given)?
T/C [5]: 111 % of control; T/C [6]: 102 % of control; T/C [7]: 108 % of control

For `C=CCN(CC=C)c1nc(N)c2cc(OC)c(OC)cc2n1`, which T/C (dose: 37.5 mg/kg/injection, schedule: Q01DX009 (ip), vehicle: suspension in saline) is on record?
The T/C was 100 % of control.

What about the T/C (dose: 75.0 mg/kg/injection, schedule: Q01DX009 (ip), vehicle: suspension in saline) of the same compound?
Its T/C is 106 % of control.

For `CC(=O)Oc1c2c(c(OC(C)=O)c3ccccc13)C(=O)C(O)C(C)O2` (stereo not given), which T/C (dose: 100.0 mg/kg/injection, schedule: Q01DX001 (ip), vehicle: Klucel (hydroxypropylcellulose) (HPC)) is on record?
Its T/C is 102 % of control.

And the T/C (dose: 200.0 mg/kg/injection, schedule: Q01DX001 (ip), vehicle: Klucel (hydroxypropylcellulose) (HPC))?
Its T/C is 96 % of control.

What about the T/C (dose: 400.0 mg/kg/injection, schedule: Q01DX001 (ip), vehicle: Klucel (hydroxypropylcellulose) (HPC)) of the same compound?
Its T/C is 100 % of control.

What does the source list for `C=CCNC(=S)N/N=C(C)/C=C/c1ccc(OC)cc1`?
T/C (dose: 50.0 mg/kg/injection, schedule: Q01DX005 (ip), vehicle: Klucel (hydroxypropylcellulose) (HPC)): 100 % of control; T/C (dose: 100.0 mg/kg/injection, schedule: Q01DX005 (ip), vehicle: Klucel (hydroxypropylcellulose) (HPC)): 96 % of control; T/C (dose: 200.0 mg/kg/injection, schedule: Q01DX005 (ip), vehicle: Klucel (hydroxypropylcellulose) (HPC)): 88 % of control

What does the source list for `O=S(=O)(O)Oc1c(S(=O)(=O)O)c(S(=O)(=O)O)c(O)c(S(=O)(=O)O)c1S(=O)(=O)O`?
T/C (dose: 25.0 mg/kg/injection, schedule: Q01DX001 (ip), vehicle: saline): 111 % of control; T/C (dose: 50.0 mg/kg/injection, schedule: Q01DX001 (ip), vehicle: saline): 113 % of control; T/C (dose: 100.0 mg/kg/injection, schedule: Q01DX001 (ip), vehicle: saline with Tween-80): 103 % of control; T/C [1]: 94 % of control

`O=C(Nc1nnc(-c2ccccc2)s1)c1cc(=O)c2ccccc2o1` was tested. Which T/C [2] did it give?
The T/C was 93 % of control.

What about the T/C [3] of the same compound?
The T/C was 96 % of control.

And the T/C [4]?
The T/C was 92 % of control.

Which T/C (dose: 12.5 mg/kg/injection, schedule: Q04DX003 (ip), vehicle: Klucel (hydroxypropylcellulose) (HPC)) does the source give for `CN(C)c1ccc(C(=NNC(N)=S)c2ccc(N(C)C)cc2)cc1` here?
Its T/C is 96 % of control.

What about the T/C (dose: 25.0 mg/kg/injection, schedule: Q04DX003 (ip), vehicle: Klucel (hydroxypropylcellulose) (HPC)) of the same compound?
The T/C was 105 % of control.

What about the T/C (dose: 50.0 mg/kg/injection, schedule: Q04DX003 (ip), vehicle: Klucel (hydroxypropylcellulose) (HPC)) of the same compound?
Its T/C is 99 % of control and 108 % of control.

`COc1ccc(C(=O)CC(C(=O)O)c2ccc(OC)c(OC)c2)cc1OC` (stereo not given) was tested. Which T/C [8] did it give?
The T/C was 90 % of control.

And the T/C [9]?
The T/C was 86 % of control.

What about the T/C [10] of the same compound?
The T/C was 86 % of control.

Which results are given for `CS(=N)(=O)c1ccccc1N` (stereo not given)?
T/C [8]: 98 % of control; T/C [9]: 99 % of control; T/C [10]: 103 % of control

How did the T/C (dose: 12.5 mg/kg/injection, schedule: Q01DX009 (ip), vehicle: saline with Tween-80) turn out when `Cc1ccc(N=C(N=C(NC(=O)c2ccccc2)c2ccccc2)c2ccccc2)cc1` was run?
Its T/C is 99 % of control.

And the T/C (dose: 25.0 mg/kg/injection, schedule: Q01DX009 (ip), vehicle: saline with Tween-80)?
The T/C was 97 % of control.

What about the T/C (dose: 50.0 mg/kg/injection, schedule: Q01DX009 (ip), vehicle: saline with Tween-80) of the same compound?
Its T/C is 89 % of control and 93 % of control (2×).

What about the T/C (dose: 200.0 mg/kg/injection, schedule: Q01DX009 (ip), vehicle: saline with Tween-80) of the same compound?
Its T/C is 95 % of control.

With `CCN=C(C1=C(O)c2ccccc2C1=O)c1ccccc1` as the compound, how does the T/C (dose: 50.0 mg/kg/injection, schedule: Q04DX002 (ip), vehicle: saline with Tween-80) read?
Its T/C is 94 % of control.

What about the T/C (dose: 100.0 mg/kg/injection, schedule: Q04DX002 (ip), vehicle: saline with Tween-80) of the same compound?
Its T/C is 119 % of control.

And the T/C (dose: 200.0 mg/kg/injection, schedule: Q04DX002 (ip), vehicle: saline with Tween-80)?
Its T/C is 111 % of control.
